Common to all, as to assay type: cell-based, human
One assay deals with A549. The assay can be described thus: MTT anti-proliferative assay. To be noted: for IC50: Homo sapiens, A549, MTT, 24 h, mean ± SE of three experiments, read-out: IC50 (µM) ± S.E. A549. The method, then: (§1) The culture media were supplemented with 10% heat inactivated foetal bovine serum (FBS, HyClone, Thermo Scientific) and antibiotics (100 U/ml penicillin and 100 µg/ml streptomycin, HyClone, Thermo Scientific). The cells were incubated in a humidified atmosphere containing 5% CO2 (Heracell VIOS CO2 incubator, Thermo Scientific) in air at 37 °C.
(§2) MTT reagent, at volume equal to 10% of the culture medium volume, was added to the cultured cells and to the blank wells. The culture plates were re-incubated for 2–4 h depending on cell type and density. After the incubation period, culture plates were restored from the incubator and the obtained formazan crystals were dissolved in acidified isopropanol with continuous shaking using plate shaker (MaxQ 2000, Thermo Fisher Scientific Inc., MI, USA) at room temperature. Absorbance was measured spectrophotometrically at wavelength 570 nm using a plate reader (Stat FaxR 4200, Awareness Technology, Inc., FL, USA). […] Three independent experiments were performed for each compound and Mean ± SE were calculated.
(Formazan colour is commonly taken as a measure of viable cells.)

The next assay has as its system MCF-7. The assay can be described thus: MTT anti-proliferative assay. To be noted: for IC50: Homo sapiens, MCF7. As to the method:
as §1, §2

The next assay relates to p53. Description: p53 level ELISA in MCF-7 cells. To be noted: for p53 FLD: MCF-7, at IC50, fold of control cells; for p53 Conc.(pg/ml): control 257 ± 19.1. The method, then:
p53 level was determined in MCF-7 cell line using Human p53 ELISA Kit (Sigma Aldrich, St. Louis, MO, USA). The cells were lysed using cell extraction buffer. Cell lysate was diluted with standard diluent buffer, then added to p53 monoclonal antibody pre-coated 96-wells plate. The plate incubated for 2 h at room temperature. Anti-p53 detection antibody was added to the plate and re-incubated at room temperature for 1 h. The plate washed four times using wash buffer followed by addition of anti-rabbit IgG-Horseradish Peroxidase (HRP) working solution. The plate incubated at room temperature for 30 min. Chromogen TMB (tetramethylbenzidine) was added to induce colour reaction. The absorbance of the plate was read at 450 nm using microplate reader (Bio-Rad Laboratories, Hercules, CA, USA). Three independent experiments were performed for each compound and Mean ± SE were calculated.
For orientation: ELISA stands for enzyme-linked immunosorbent assay.

Where [1] appears, read: MCF-7, concentration used for treatment, read-out: IC50 µM (Table 4).
The mark [2] stands for this setting: MCF-7, concentration used for treatment, read-out: IC50 (Table 2).
[3] abbreviates: MCF-7, concentration used for treatment, read-out: IC50 (Table 3).
[4] abbreviates: MTT, 24 h, mean ± SE of three experiments, read-out: IC50 (µM) ± S.E. MCF-7.

Where two headings read alike, the source gives them in different places.

`COc1ccc(-c2nc3sc4c(n3c(=O)c2C#N)C(=O)c2ccccc2C4=O)cc1` [Compound 6a, 2–(4-Methoxyphenyl)-4,6,11-trioxo-6,11-dihydro-4H-naphtho[2′,3′:4,5]-thiazolo[3,2-a]pyrimidine-3-carbonitrile]: the IC50 with A549 came out at 2.81 ± 0.18 µM; with MCF-7 (setting [1]), 3.34 µM; in the assay with MCF-7 (setting [2]) it was 3.34 µM; in the assay on MCF-7 (setting [3]), 3.34 µM; with MCF-7 (setting [4]) it was 3.34 ± 0.21 µM. For the same molecule, the “p53 FLD” value in the assay with p53 was determined as 3.6 fold. Moreover, in the assay with p53 (MCF-7, at IC50), the “p53 Conc.(pg/ml)” value turned out to be 922 ± 37.5 pg/mL.
In the case of `N#Cc1c(-c2ccc([N+](=O)[O-])cc2)nc2sc3c(n2c1=O)C(=O)c1ccccc1C3=O` [Compound 6i, 2–(4-Nitrophenyl)-4,6,11-trioxo-6,11-dihydro-4H-naphtho[’',’':4,5]thiazolo-[3,2-a]pyrimidine-3-carbonitrile], the “fold superior activity than Dox” value with A549 (A549, ratio of IC50 values) stood at 3.19 fold; in the assay with MCF-7 (MCF-7, ratio of IC50 values), 3.13 fold. Moreover, the “fold the activity of erlotinib” value with A549 (A549, ratio of IC50 values) is reported as 3.35 fold; in the assay with MCF-7 (MCF-7, ratio of IC50 values), 4.05 fold. Also, the concentration for half-maximal inhibition (IC50) was 1.55 ± 0.13 µM with A549; 1.79 µM with MCF-7 (setting [1]); 1.79 µM in the assay with MCF-7 (setting [2]); 1.79 µM in the assay on MCF-7 (setting [3]); 1.79 ± 0.11 µM with MCF-7 (setting [4]). Besides, the “increase in p53 level compared to Dox treated cells” value in the assay on p53 (MCF-7, at IC50) came to 1.2 fold. The “p53 FLD” value with p53 turned out to be 5 fold. The “p53 Conc.(pg/ml)” value in the assay on p53 (MCF-7, at IC50) was 1285 ± 29.9 pg/mL.

Broadly, the IC50 is the midpoint of a concentration-inhibition curve.

Values taken from publication PMC10177692, “Novel topoisomerase II/EGFR dual inhibitors: design, synthesis and docking studies of naphtho[2′,3′:4,5]thiazolo[3,2-a]pyrimidine hybrids as potential anticancer agents with apoptosis inducing activity” (Journal of Enzyme Inhibition and Medicinal Chemistry, 2023).
